Results: US20250163055A1, “POLYMORPH OF JAK TYROSINE KINASE INHIBITOR AND PREPARATION METHOD THEREFOR” (Prime Gene Therapeutics Co., Ltd., priority 2022, published 2025)
Converted amounts (≈) assume the structure as drawn. “Also recorded” adds a separate entry of the source. Where two headings read alike, the source gives them in different places. One block for each compound: values may come before it.

Tests used:
[1] = Stability of crystal form III on standing (NMR); format: physicochemical
Experimental: 15 mg of 2-{3-[3-amino-4-(7H-pyrrolo[2,3-d]pyrimidin-4-yl)-1H-pyrazol-1-yl]-1-(isopropylsulfonyl)azetidin-3-yl}acetonitrile was added to 3 mL of dioxane, then heated to 40° C. to dissolve and the obtained solution is clear. After filtration, the solution was volatilized and crystallized at 40° C. to obtain crystal form III.

[2] = Long-term (24-months) stability of crystal forms; format: physicochemical; details: for stability of the crystal form (result in words): long-term stability investigation, summary; for Appearance / Content / Crystal Form / Loss on Drying / Related Substances, Most Unknown Impurity / Related Substances, Total Impurities: long-term stability
Description: The crystals prepared in examples 1, 3 and 6 were selected, and the stability of the crystal forms 1, IIa and IIb was investigated in accordance with the stability research guidelines issued by the National Medical Product Administration. The crystals were packed in pharmaceutical low-density polyethylene bags, and 24 months long-term stability was investigated.

[3] = Solubility of crystal forms in 20% propylene glycol at 32° C. over time; format: physicochemical; details: aqueous with cosolvent or surfactant or cyclodextrin, thermodynamic from solid
Description: (§1) Solubility Investigation of Different Crystal Forms

[4] = Solubility measurement at different pH (37° C., 24 h); format: physicochemical; details: for solubility at 24 h: 37 °C, thermodynamic from solid, read-out: solubility, concentration
Description: as §1

[5] = Transdermal test of gel preparations (transdermal rate); format: in vitro ADME; details: gel preparation; receiving medium 5.0% Tween 80, pH 5.5 phosphate
Description: Take the crystal obtained in Examples 1 or 6 and prepare it into gel preparation (the process for preparing the gel preparation can be: after stirring PEG400, propylene glycol, glycerin, ethanol and the crystal of Example 1 or 6, mix with EDTA aqueous solution, add in the swelled carbomer aqueous solution, adjust pH to be 6 with 10% triethanolamine solution, to obtain the gel). Measure respective transdermal rate (receiving medium 5.0% Tween 80, pH 5.5 phosphate).

[6] = Pharmacokinetic experiment in male SD rats (oral, intravenous, transdermal); format: in vivo, rat
Experimental: (§2) The solid powders of Examples 1 and 6, and the hydrogel preparations thereof were taken, and the PK values of rats administered by oral gavage and transdermal application were respectively determined. Male SD rats were divided into groups, 3 rats in each group, and were administered the compounds obtained in Examples 1 and 6 by oral gavage (oral group). administered Example 1 intravenously (intravenous group), and administered the gel preparations prepared from the compounds of Examples 1 and 6 topically to the skin (transdermal group). Animals were fasted overnight before the experiment, and the fasting time ranged from 10 hours before administration to 4 hours after administration. Blood was collected at 0.25, 0.5, 1, 2, 4, 6, 8 and 24 hours after administration in oral group and transdermal group, and at 0.083, 0.25, 0.5, 1, 2, 4, 6, 8 and 24 hours after administration in intravenous group. After being anesthetized with isoflurane using a small animal anesthesia machine, 0.3 mL of whole blood was collected through the fundus venous plexus and placed in a heparin anticoagulant tube. The blood samples were centrifuged at 4° C. and 4000 rpm for 5 min, and plasma was transferred to a centrifuge tube and placed at −80° C. until analysis. Plasma was extracted by protein precipitation method, and the extract was analyzed by LC/MS/MS. The transdermal group was administered for 24 hours and the skin at the administration site was peeled off after washing off the epidermal drug, and the drug content in the skin was analyzed by LC/MS/MS after homogenization.

[7] = Drug concentration in the skin after topical administration to skin for 24 hours; format: in vivo, rat; details: topical gel
Experimental: as §2, with “After being anesthetized with isoflurane using a small animal anesthesia machine, 0.3 mL of whole blood was collected through the fundus venous plexus and placed in a heparin anticoagulant tube. The blood samples were centrifuged at 4° C. and 4000 rpm for 5 min, and plasma was transferred to a centrifuge tube and placed at −80° C. until analysis.” left out

- crystallinity and stability (result in words) [1]: poor crystallinity and stability
- impurities generated after standing (nuclear magnetic resonance) ([1]; after standing): about 10%
Compound: CC(C)S(=O)(=O)N1CC(CC#N)(n2cc(-c3ncnc4[nH]ccc34)c(N)n2)C1 [Example 8, 2-{3-[3-amino-4-(7H-pyrrolo[2,3-d]pyrimidin-4-yl)-1H-pyrazol-1-yl]-1-(isopropylsulfonyl)azetidin-3-yl}acetonitrile crystal form III]

- Appearance ([2]; 0 month): Off-white powder
- Content ([2]; 0 month): 99.8%
- Crystal Form ([2]; 0 month): IIa
- Loss on Drying ([2]; 0 month): 0.06%
- Related Substances, Most Unknown Impurity ([2]; 0 month): 0.06%
- Related Substances, Total Impurities ([2]; 0 month): 0.28%
- Appearance ([2]; 3 months): Off-white powder
- Content ([2]; 3 months): 97.6%
- Crystal Form ([2]; 3 months): IIb
- Loss on Drying ([2]; 3 months): 0.18%
- Related Substances, Most Unknown Impurity ([2]; 3 months): 0.08%
- Related Substances, Total Impurities ([2]; 3 months): 0.28%
- Appearance ([2]; 6 months): Off-white powder
- Content ([2]; 6 months): 97.8%
- Crystal Form ([2]; 6 months): IIb
- Loss on Drying ([2]; 6 months): 0.19%
- Related Substances, Most Unknown Impurity ([2]; 6 months): 0.11%
- Related Substances, Total Impurities ([2]; 6 months): 0.27%
- Appearance ([2]; 9 months): Off-white powder
- Content ([2]; 9 months): 97.9%
- Crystal Form ([2]; 9 months): IIb
- Loss on Drying ([2]; 9 months): 0.24%
- Related Substances, Most Unknown Impurity ([2]; 9 months): 0.06%
- Related Substances, Total Impurities ([2]; 9 months): 0.24%
- Appearance ([2]; 12 months): Off-white powder
- Content ([2]; 12 months): 97.8%
- Crystal Form ([2]; 12 months): IIb
- Loss on Drying ([2]; 12 months): 0.20%
- Related Substances, Most Unknown Impurity ([2]; 12 months): 0.09%
- Related Substances, Total Impurities ([2]; 12 months): 0.22%
- Appearance ([2]; 18 months): Off-white powder
- Content ([2]; 18 months): 98.0%
- Crystal Form ([2]; 18 months): IIb
- Loss on Drying ([2]; 18 months): 0.16%
- Related Substances, Most Unknown Impurity ([2]; 18 months): 0.07%
- Related Substances, Total Impurities ([2]; 18 months): 0.26%
- Appearance ([2]; 24 months): Off-white powder
- Content ([2]; 24 months): 97.8%
- Crystal Form ([2]; 24 months): IIb
- Loss on Drying ([2]; 24 months): 0.25%
- Related Substances, Most Unknown Impurity ([2]; 24 months): 0.08%
- Related Substances, Total Impurities ([2]; 24 months): 0.29%
Compound: CC(C)S(=O)(=O)N1CC(CC#N)(n2cc(-c3ncnc4[nH]ccc34)c(N)n2)C1 [Example 3, 2-{3-[3-amino-4-(7H-pyrrolo[2,3-d]pyrimidin-4-yl)-1H-pyrazol-1-yl]-1-(isopropylsulfonyl)azetidin-3-yl}acetonitrile crystal form IIa]
- stability of the crystal form (result in words) [2]: gradually absorbed water during standing and was transformed into crystal form IIb

- solubility at 18 h [3]: 20.2 µg/mL (≈ 50.4 µM)
- solubility at 24 h ([4]; pH 6.8, aqueous buffer, pH 6.8, 37° C.): 1.2 µg/mL (≈ 3 µM)
- solubility at 24 h ([4]; pH 7, aqueous buffer, pH 7.0, 37° C.): 1.3 µg/mL (≈ 3.25 µM)
- solubility at 24 h ([4]; pH 8, aqueous buffer, pH 8.0, 37° C.): 1.2 µg/mL (≈ 3 µM)
- stability of the crystal form (result in words) ([2]; listed as Crystal form I): good stability
- stability of the crystal form (result in words) ([2]; listed as crystal form I): better chemical stability
- Appearance ([2]; 0 month): Off-white powder
- Content ([2]; 0 month): 99.9%
- Loss on Drying ([2]; 0 month): 0.08%
- Related Substances, Most Unknown Impurity ([2]; 0 month): 0.17%
- Related Substances, Total Impurities ([2]; 0 month): 0.58%
- Appearance ([2]; 3 months): Off-white powder
- Content ([2]; 3 months): 100.1%
- Loss on Drying ([2]; 3 months): 0.06%
- Related Substances, Most Unknown Impurity ([2]; 3 months): 0.16%
- Related Substances, Total Impurities ([2]; 3 months): 0.57%
- Appearance ([2]; 6 months): Off-white powder
- Content ([2]; 6 months): 100.0%
- Loss on Drying ([2]; 6 months): 0.08%
- Related Substances, Most Unknown Impurity ([2]; 6 months): 0.17%
- Related Substances, Total Impurities ([2]; 6 months): 0.57%
- Appearance ([2]; 9 months): Off-white powder
- Content ([2]; 9 months): 99.8%
- Loss on Drying ([2]; 9 months): 0.11%
- Related Substances, Most Unknown Impurity ([2]; 9 months): 0.17%
- Related Substances, Total Impurities ([2]; 9 months): 0.57%
- Appearance ([2]; 12 months): Off-white powder
- Content ([2]; 12 months): 99.9%
- Loss on Drying ([2]; 12 months): 0.09%
- Related Substances, Most Unknown Impurity ([2]; 12 months): 0.17%
- Related Substances, Total Impurities ([2]; 12 months): 0.55%
- Appearance ([2]; 18 months): Off-white powder
- Content ([2]; 18 months): 99.7%
- Loss on Drying ([2]; 18 months): 0.12%
- Related Substances, Most Unknown Impurity ([2]; 18 months): 0.18%
- Related Substances, Total Impurities ([2]; 18 months): 0.62%
- Appearance ([2]; 24 months): Off-white powder
- Content ([2]; 24 months): 99.8%
- Loss on Drying ([2]; 24 months): 0.10%
- Related Substances, Most Unknown Impurity ([2]; 24 months): 0.16%
- Related Substances, Total Impurities ([2]; 24 months): 0.59%
- transdermal performance / transdermal absorption (result in words) [5]: better transdermal performance
- half-life ([6]; male, SD, rat, plasma, iv, intravenous group): 2.49 h
- AUC(0-inf) ([6]; male, SD, rat, plasma, iv, intravenous group, read-out: AUC0-inf): 496 ng·h/mL
- half-life ([6]; male, SD, rat, plasma, po, oral group (gavage)): 5.33 h
- AUC(0-inf) ([6]; male, SD, rat, plasma, po, oral group (gavage), read-out: AUC0-inf): 941 ng·h/mL
- Cmax ([6]; male, SD, rat, plasma, po, oral group (gavage), read-out: Cmax): 111 ng/mL
- Tmax ([6]; male, SD, rat, plasma, po, oral group (gavage), read-out: Tmax): 2.67 h
- F ([6]; oral group (gavage)): 37%
- clearance ([6]; rat, plasma, intravenous group): 69.2 mL/min/kg
- Vd ([6]; rat, plasma, intravenous group, read-out: Vss): 4.93 L/kg
Compound: CC(C)S(=O)(=O)N1CC(CC#N)(n2cc(-c3ncnc4[nH]ccc34)c(N)n2)C1 [Example 1, 2-{3-[3-amino-4-(7H-pyrrolo[2,3-d]pyrimidin-4-yl)-1H-pyrazol-1-yl]-1-(isopropylsulfonyl)azetidin-3-yl}acetonitrile crystal form I]
- solubility compared with crystal form IIb (result in words) ([4]; summary): higher solubility and oral bioavailability than crystal form IIb

- Appearance ([2]; 0 month): Off-white
- Content ([2]; 0 month): 99.7%
- Crystal Form ([2]; 0 month): IIb
- Loss on Drying ([2]; 0 month): 0.36%
- Related Substances, Most Unknown Impurity ([2]; 0 month): 0.07%
- Related Substances, Total Impurities ([2]; 0 month): 0.38%
- Appearance ([2]; 3 months): Off-white
- Content ([2]; 3 months): 99.7%
- Crystal Form ([2]; 3 months): IIb
- Loss on Drying ([2]; 3 months): 0.36%
- Related Substances, Most Unknown Impurity ([2]; 3 months): 0.08%
- Related Substances, Total Impurities ([2]; 3 months): 0.38%
- Appearance ([2]; 6 months): Off-white
- Content ([2]; 6 months): 99.6%
- Crystal Form ([2]; 6 months): IIb
- Loss on Drying ([2]; 6 months): 0.39%
- Related Substances, Most Unknown Impurity ([2]; 6 months): 0.08%
- Related Substances, Total Impurities ([2]; 6 months): 0.37%
- Appearance ([2]; 9 months): Off-white
- Content ([2]; 9 months): 99.5%
- Crystal Form ([2]; 9 months): IIb
- Loss on Drying ([2]; 9 months): 0.34%
- Related Substances, Most Unknown Impurity ([2]; 9 months): 0.08%
- Related Substances, Total Impurities ([2]; 9 months): 0.38%
- Appearance ([2]; 12 months): Off-white
- Content ([2]; 12 months): 99.6%
- Crystal Form ([2]; 12 months): IIb
- Loss on Drying ([2]; 12 months): 0.30%
- Related Substances, Most Unknown Impurity ([2]; 12 months): 0.07%
- Related Substances, Total Impurities ([2]; 12 months): 0.37%
- Appearance ([2]; 18 months): Off-white
- Content ([2]; 18 months): 99.6%
- Crystal Form ([2]; 18 months): IIb
- Loss on Drying ([2]; 18 months): 0.31%
- Related Substances, Most Unknown Impurity ([2]; 18 months): 0.07%
- Related Substances, Total Impurities ([2]; 18 months): 0.39%
- Appearance ([2]; 24 months): Off-white
- Content ([2]; 24 months): 99.7%
- Crystal Form ([2]; 24 months): IIb
- Loss on Drying ([2]; 24 months): 0.32%
- Related Substances, Most Unknown Impurity ([2]; 24 months): 0.08%
- Related Substances, Total Impurities ([2]; 24 months): 0.39%
- AUC(0-inf) ([6]; oral group (gavage)): 537 ng·h/mL
- Cmax ([6]; oral group (gavage)): 114 ng/mL
- F ([6]; oral group (gavage)): 22%
- T1/2 ([6]; oral group (gavage)): 3.40 h
- Tmax ([6]; oral group (gavage)): 3.17 h
- drug concentration retained in animal skin relative to crystal form I [7]: up to 7 times
Compound: CC(C)S(=O)(=O)N1CC(CC#N)(n2cc(-c3ncnc4[nH]ccc34)c(N)n2)C1 [Example 6, 2-{3-[3-amino-4-(7H-pyrrolo[2,3-d]pyrimidin-4-yl)-1H-pyrazol-1-yl]-1-(isopropylsulfonyl)azetidin-3-yl}acetonitrile crystal form IIb]
- stability of the crystal form (result in words) [2]: better chemical stability; also recorded: good stability
- transdermal performance / transdermal absorption (result in words) [5]: inferior to crystal form I in transdermal absorption
